Assay results: the NIST ThermoML archive (doi:10.1007/s10765-013-1469-0)
Numbers after ± are expanded uncertainties.

Assay: refractive index (Na D-line) (dimensionless); xn = mol fraction of the nth substance listed
Conditions: 101 kPa, Liquid, Standard Abbe refractometry

SMILES: COCCOCCOCCOCCOC [2,5,8,11,14-pentaoxapentadecane] + CCCCO
- refractive index (288.15 K, x2 = 0): 1.4345 ± 0.00033
- refractive index (288.15 K, x2 = 0.1013): 1.43292 ± 0.00033
- refractive index (288.15 K, x2 = 0.2236): 1.43083 ± 0.00033
- refractive index (288.15 K, x2 = 0.3036): 1.42941 ± 0.00033
- refractive index (288.15 K, x2 = 0.4131): 1.42694 ± 0.00033
- refractive index (288.15 K, x2 = 0.5065): 1.42465 ± 0.00033
- refractive index (288.15 K, x2 = 0.5996): 1.42188 ± 0.00033
- refractive index (288.15 K, x2 = 0.7007): 1.41822 ± 0.00033
- refractive index (288.15 K, x2 = 0.7991): 1.41381 ± 0.00033
- refractive index (288.15 K, x2 = 0.8996): 1.40823 ± 0.00033
- refractive index (293.15 K, x2 = 0): 1.43238 ± 0.00033
- refractive index (293.15 K, x2 = 0.1013): 1.43079 ± 0.00033
- refractive index (293.15 K, x2 = 0.2236): 1.42871 ± 0.00033
- refractive index (293.15 K, x2 = 0.3036): 1.4273 ± 0.00033
- refractive index (293.15 K, x2 = 0.4131): 1.42482 ± 0.00033
- refractive index (293.15 K, x2 = 0.5065): 1.42256 ± 0.00033
- refractive index (293.15 K, x2 = 0.5996): 1.41981 ± 0.00033
- refractive index (293.15 K, x2 = 0.7007): 1.41614 ± 0.00033
- refractive index (293.15 K, x2 = 0.7991): 1.41175 ± 0.00033
- refractive index (293.15 K, x2 = 0.8996): 1.40619 ± 0.00033
- refractive index (298.15 K, x2 = 0): 1.43027 ± 0.00033
- refractive index (298.15 K, x2 = 0.1013): 1.42868 ± 0.00033
- refractive index (298.15 K, x2 = 0.2236): 1.42659 ± 0.00033
- refractive index (298.15 K, x2 = 0.3036): 1.42517 ± 0.00033
- refractive index (298.15 K, x2 = 0.4131): 1.42271 ± 0.00033
- refractive index (298.15 K, x2 = 0.5065): 1.42044 ± 0.00033
- refractive index (298.15 K, x2 = 0.5996): 1.41772 ± 0.00033
- refractive index (298.15 K, x2 = 0.7007): 1.41408 ± 0.00033
- refractive index (298.15 K, x2 = 0.7991): 1.40972 ± 0.00033
- refractive index (298.15 K, x2 = 0.8996): 1.40418 ± 0.00033
- refractive index (303.15 K, x2 = 0): 1.42815 ± 0.00033
- refractive index (303.15 K, x2 = 0.1013): 1.42658 ± 0.00033
- refractive index (303.15 K, x2 = 0.2236): 1.42448 ± 0.00033
- refractive index (303.15 K, x2 = 0.3036): 1.42306 ± 0.00033
- refractive index (303.15 K, x2 = 0.4131): 1.42058 ± 0.00033
- refractive index (303.15 K, x2 = 0.5065): 1.4183 ± 0.00033
- refractive index (303.15 K, x2 = 0.5996): 1.41558 ± 0.00033
- refractive index (303.15 K, x2 = 0.7007): 1.41199 ± 0.00033
- refractive index (303.15 K, x2 = 0.7991): 1.40769 ± 0.00033
- refractive index (303.15 K, x2 = 0.8996): 1.40216 ± 0.00033
- refractive index (308.15 K, x2 = 0): 1.42603 ± 0.00033
- refractive index (308.15 K, x2 = 0.1013): 1.42448 ± 0.00033
- refractive index (308.15 K, x2 = 0.2236): 1.42237 ± 0.00033
- refractive index (308.15 K, x2 = 0.3036): 1.42094 ± 0.00033
- refractive index (308.15 K, x2 = 0.4131): 1.41846 ± 0.00033
- refractive index (308.15 K, x2 = 0.5065): 1.41616 ± 0.00033
- refractive index (308.15 K, x2 = 0.5996): 1.41346 ± 0.00033
- refractive index (308.15 K, x2 = 0.7007): 1.40985 ± 0.00033
- refractive index (308.15 K, x2 = 0.7991): 1.40559 ± 0.00033
- refractive index (308.15 K, x2 = 0.8996): 1.40005 ± 0.00033
- refractive index (313.15 K, x2 = 0): 1.42394 ± 0.00033
- refractive index (313.15 K, x2 = 0.1013): 1.42237 ± 0.00033
- refractive index (313.15 K, x2 = 0.2236): 1.42024 ± 0.00033
- refractive index (313.15 K, x2 = 0.3036): 1.41881 ± 0.00033
- refractive index (313.15 K, x2 = 0.4131): 1.41635 ± 0.00033
- refractive index (313.15 K, x2 = 0.5065): 1.41403 ± 0.00033
- refractive index (313.15 K, x2 = 0.5996): 1.41132 ± 0.00033
- refractive index (313.15 K, x2 = 0.7007): 1.40775 ± 0.00033
- refractive index (313.15 K, x2 = 0.7991): 1.40349 ± 0.00033
- refractive index (313.15 K, x2 = 0.8996): 1.39795 ± 0.00033
- refractive index (318.15 K, x2 = 0): 1.42183 ± 0.00033
- refractive index (318.15 K, x2 = 0.1013): 1.42027 ± 0.00033
- refractive index (318.15 K, x2 = 0.2236): 1.41815 ± 0.00033
- refractive index (318.15 K, x2 = 0.3036): 1.41673 ± 0.00033
- refractive index (318.15 K, x2 = 0.4131): 1.41424 ± 0.00033
- refractive index (318.15 K, x2 = 0.5065): 1.41192 ± 0.00033
- refractive index (318.15 K, x2 = 0.5996): 1.40924 ± 0.00033
- refractive index (318.15 K, x2 = 0.7007): 1.40562 ± 0.00033
- refractive index (318.15 K, x2 = 0.7991): 1.40133 ± 0.00033
- refractive index (318.15 K, x2 = 0.8996): 1.39583 ± 0.00033
- refractive index (323.15 K, x2 = 0): 1.41973 ± 0.00033
- refractive index (323.15 K, x2 = 0.1013): 1.41818 ± 0.00033
- refractive index (323.15 K, x2 = 0.2236): 1.41604 ± 0.00033
- refractive index (323.15 K, x2 = 0.3036): 1.41461 ± 0.00033
- refractive index (323.15 K, x2 = 0.4131): 1.4121 ± 0.00033
- refractive index (323.15 K, x2 = 0.5065): 1.40977 ± 0.00033
- refractive index (323.15 K, x2 = 0.5996): 1.40709 ± 0.00033
- refractive index (323.15 K, x2 = 0.7007): 1.40351 ± 0.00033
- refractive index (323.15 K, x2 = 0.7991): 1.39924 ± 0.00033
- refractive index (323.15 K, x2 = 0.8996): 1.39374 ± 0.00033
- refractive index (328.15 K, x2 = 0): 1.41765 ± 0.00033
- refractive index (328.15 K, x2 = 0.1013): 1.41611 ± 0.00033
- refractive index (328.15 K, x2 = 0.2236): 1.41396 ± 0.00033
- refractive index (328.15 K, x2 = 0.3036): 1.41251 ± 0.00033
- refractive index (328.15 K, x2 = 0.4131): 1.40998 ± 0.00033
- refractive index (328.15 K, x2 = 0.5065): 1.40763 ± 0.00033
- refractive index (328.15 K, x2 = 0.5996): 1.40491 ± 0.00033
- refractive index (328.15 K, x2 = 0.7007): 1.40133 ± 0.00033
- refractive index (328.15 K, x2 = 0.7991): 1.39712 ± 0.00033
- refractive index (328.15 K, x2 = 0.8996): 1.3916 ± 0.00033
- refractive index (333.15 K, x2 = 0): 1.41553 ± 0.00033
- refractive index (333.15 K, x2 = 0.1013): 1.41403 ± 0.00033
- refractive index (333.15 K, x2 = 0.2236): 1.41186 ± 0.00033
- refractive index (333.15 K, x2 = 0.3036): 1.4104 ± 0.00033
- refractive index (333.15 K, x2 = 0.4131): 1.40784 ± 0.00033
- refractive index (333.15 K, x2 = 0.5065): 1.40547 ± 0.00033
- refractive index (333.15 K, x2 = 0.5996): 1.40273 ± 0.00033
- refractive index (333.15 K, x2 = 0.7007): 1.39917 ± 0.00033
- refractive index (333.15 K, x2 = 0.7991): 1.39497 ± 0.00033
- refractive index (333.15 K, x2 = 0.8996): 1.38936 ± 0.00033
